From patent US20180327723A1, “Production of Glycosylated Nootkatol in Recombinant Hosts” (Evolva SA, priority 2015, published 2018) come the findings set out here.

Data set [1] in a line: In vitro de-glycosylation of nootkatol-glucoside by glycosidase enzymes, LC-MS. To be noted: water control, Delft fermentation medium, 2 hours. Format: biochemical. How it is done:
Identical samples of 990 μl of Delft fermentation medium further comprising 0.1 mg nootkatol-glucoside (Nootkatol-Glc) were each treated with 10 μl of 12 exemplary glycosidase enzymes (listed in Table 3 below) (thus, 1% v/v) for 2 hours. After 2 hours, samples of the reaction mixture were taken, and the de-glycosylation reaction was terminated by addition of an equal volume of ethanol followed by freezing.
The resulting digested samples were analyzed by LC-MS on a BEH C18-column (100 mm×2.1 mm, 5 μm). Mobile phase A was 0.1% formic acid in water, and mobile phase B was 0.1% formic acid in acetonitrile. B concentration gradient was 0-1 min, 1%; 1-5 min, 100%; 5-7 min, 100%; 7-7.1 min, 1%; 7.1-9 min, 1%. The injection volume was 5 μL. Mass spectrometry analysis was carried out on an SQD1 detector (3.4 KV capillary, 37 V cone, 3 V extractor, 0.1 V RF lens) at a source temperature of 150° C. and desolvation temperature of 250° C., with full scan ESI+/−(100-900 amu scan range) and selective ion recording.

Data set [2] has as its system wild-type MATa strain ATCC 28383. In words: Growth-inhibitory effect on yeast, cell viability by plating (CFU). Format: cell-based, S. cerevisiae. To be noted: 0.5 g/L, 5 h of exposure, plated on YPD. How it is done:
A 20 mL seed culture of wild-type MATa strain ATCC 28383 was grown in SD-THUL medium (0.67 Bacto yeast nitrogen base without amino acids, 2% glucose, 0.14% yeast synthetic drop-out medium without uracil, tryptophan, histidine and leucine). The culture was grown for 24 h, and 2.5 mL of the culture was used to inoculate 7 equal batches of 50 mL fermentation medium (2% (NH4)2SO4, 2% KH2PO4, 0.1% NaCl, 0.6% MgSO4.7H2O, 0.4% yeast extract, 1 mL mineral solution [FeSO4.7H2O 0.028%, ZnSO4.7H2O 0.029%, CuSO4.5H2O 0.008%, Na2MoO4.2H2O 0.024%, CoCl2.6H2O 0.024%, MnSO4.H2O 0.017%, HCl 1 mL], 0.5 mL 50% glucose, 1.5 mL vitamin solution [biotin 0.001%, Ca-pantothenate 0.012%, inositol 0.06%, pyridoxine-HCl 0.012%, thiamine-HCl 0.012%], and 0.5 mL 10% CaCl2) in 250 mL baffled Ehrlenmeyer flasks.
In 6 flasks, nootkatol or glycosylated nootkatol (nootkatol+1 glucose) were added in final concentrations of 0.06, 0.125, and 0.5 g/L. The 7th flask was used as a control and was not treated with nootkatol or glycosylated nootkatol. The cultures were grown at 28° C. and 170 rpm, and the cell viability was measured after 5 h of exposure by plating 100 μL of 1/1000 dilution of cell culture on yeast extract peptone dextrose (YPD) plates.

With `C=C(C)C1CCC2=CC(OC3OC(CO)C(O)C(O)C3O)CC(C)C2(C)C1` (centres unmarked) [glycosylated nootkatol], in data set [1], the spontaneous de-glycosylation result is “weak spontaneous de-glycosylation”. The “toxicity (cell viability)” value in data set [2] is reported as “no toxicity was observed”.
